Laboratory results: ChEMBL document CHEMBL1909046, “DrugMatrix in vitro pharmacology data”

Experiments:
Cytochrome P450 1A2 = biological target: T1, Cytochrome P450 1A2 (Homo sapiens, UniProt P05177); details: bti-tn-5b1-4; further: in other assays of this panel Not Active means under 50% inhibition at 10 µM
T1 sequence (P05177 whole entry): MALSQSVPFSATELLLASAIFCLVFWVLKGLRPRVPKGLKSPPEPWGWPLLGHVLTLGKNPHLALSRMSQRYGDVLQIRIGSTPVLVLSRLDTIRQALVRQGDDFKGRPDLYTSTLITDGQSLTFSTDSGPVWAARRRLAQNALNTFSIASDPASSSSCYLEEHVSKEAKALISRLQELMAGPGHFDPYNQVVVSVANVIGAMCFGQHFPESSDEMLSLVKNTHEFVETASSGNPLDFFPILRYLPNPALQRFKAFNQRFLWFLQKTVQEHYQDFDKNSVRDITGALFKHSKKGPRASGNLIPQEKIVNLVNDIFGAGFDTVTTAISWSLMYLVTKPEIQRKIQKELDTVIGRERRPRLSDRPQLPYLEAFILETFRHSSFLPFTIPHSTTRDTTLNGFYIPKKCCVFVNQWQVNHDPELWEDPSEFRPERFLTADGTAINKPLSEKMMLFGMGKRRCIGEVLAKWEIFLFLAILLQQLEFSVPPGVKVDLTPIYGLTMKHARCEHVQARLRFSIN

Mu-type opioid receptor = Mu-type opioid receptor (Homo sapiens, UniProt P35372); experiment: DRUGMATRIX: Opiate mu (OP3, MOP) radioligand binding (ligand: [3H] Diprenorphine); assay type: cell membranes, CHO-K1, Membrane; details: cho-k1; Not Active = under 50% inhibition at 10 µM
Sequence of Mu-type opioid receptor (P35372 whole entry): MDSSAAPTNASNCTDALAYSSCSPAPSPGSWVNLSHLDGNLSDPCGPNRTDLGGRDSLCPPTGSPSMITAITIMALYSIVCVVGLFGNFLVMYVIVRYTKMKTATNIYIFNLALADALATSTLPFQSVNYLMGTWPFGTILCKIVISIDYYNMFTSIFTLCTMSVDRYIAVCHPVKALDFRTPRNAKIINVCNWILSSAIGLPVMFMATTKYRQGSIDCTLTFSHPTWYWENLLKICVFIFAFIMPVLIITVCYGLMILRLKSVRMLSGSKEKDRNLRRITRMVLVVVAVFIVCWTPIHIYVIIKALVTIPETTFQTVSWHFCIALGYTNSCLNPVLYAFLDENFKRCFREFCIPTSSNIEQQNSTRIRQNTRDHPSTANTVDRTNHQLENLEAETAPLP

[1] = DRUGMATRIX: Sigma2 radioligand binding (ligand: [3H] Ifenprodil); assay type: cell membranes, Rattus norvegicus, Wistar, Brain, Membrane; details: Not Active = under 50% inhibition at 10 µM
[2] = DRUGMATRIX: Sodium/nucleoside co-transporter radioligand binding (ligand: nitrobenzylthioinosine); assay type: cell membranes, Cavia porcellus, Dunkin-Hartley, Cerebral cortex, Membrane; details: Not Active = under 50% inhibition at 10 µM
[3] = biological target: Tyrosine-protein kinase Fyn (Homo sapiens, UniProt P06241); experiment: biochemical; assay type: cell-based, Insect cells; details: insect cells;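 further: enzymatic inhibition of Fyn kinase activity measured with Poly(Glu:Tyr) as the phosphorylation substrate; in other assays of this panel Not Active means under 50% inhibition at 10 µM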
Sequence of Tyrosine-protein kinase Fyn (P06241 whole entry): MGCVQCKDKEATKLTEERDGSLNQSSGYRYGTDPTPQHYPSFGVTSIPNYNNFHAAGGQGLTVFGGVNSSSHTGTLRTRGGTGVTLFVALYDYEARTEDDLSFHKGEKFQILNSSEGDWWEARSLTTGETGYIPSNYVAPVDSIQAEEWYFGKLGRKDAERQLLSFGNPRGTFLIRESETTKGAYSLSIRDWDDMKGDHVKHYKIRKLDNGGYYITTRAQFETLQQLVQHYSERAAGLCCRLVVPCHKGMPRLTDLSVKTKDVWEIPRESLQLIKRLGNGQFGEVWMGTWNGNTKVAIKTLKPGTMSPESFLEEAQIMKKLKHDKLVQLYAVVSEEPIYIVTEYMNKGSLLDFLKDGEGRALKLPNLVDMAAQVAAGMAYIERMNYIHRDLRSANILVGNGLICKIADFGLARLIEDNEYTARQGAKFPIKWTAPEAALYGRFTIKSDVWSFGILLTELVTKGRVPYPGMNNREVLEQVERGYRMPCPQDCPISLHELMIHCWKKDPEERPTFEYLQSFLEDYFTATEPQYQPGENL

[4] = biological target: T2, Angiotensin-converting enzyme (Oryctolagus cuniculus, UniProt P12822); assay type: tissue-based, Lung;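 further: enzymatic inhibition of angiotensin-converting enzyme measured with FAPGG as the substrate; in other assays of this panel Not Active means under 50% inhibition at 10 µM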
T2 sequence (P12822 whole entry): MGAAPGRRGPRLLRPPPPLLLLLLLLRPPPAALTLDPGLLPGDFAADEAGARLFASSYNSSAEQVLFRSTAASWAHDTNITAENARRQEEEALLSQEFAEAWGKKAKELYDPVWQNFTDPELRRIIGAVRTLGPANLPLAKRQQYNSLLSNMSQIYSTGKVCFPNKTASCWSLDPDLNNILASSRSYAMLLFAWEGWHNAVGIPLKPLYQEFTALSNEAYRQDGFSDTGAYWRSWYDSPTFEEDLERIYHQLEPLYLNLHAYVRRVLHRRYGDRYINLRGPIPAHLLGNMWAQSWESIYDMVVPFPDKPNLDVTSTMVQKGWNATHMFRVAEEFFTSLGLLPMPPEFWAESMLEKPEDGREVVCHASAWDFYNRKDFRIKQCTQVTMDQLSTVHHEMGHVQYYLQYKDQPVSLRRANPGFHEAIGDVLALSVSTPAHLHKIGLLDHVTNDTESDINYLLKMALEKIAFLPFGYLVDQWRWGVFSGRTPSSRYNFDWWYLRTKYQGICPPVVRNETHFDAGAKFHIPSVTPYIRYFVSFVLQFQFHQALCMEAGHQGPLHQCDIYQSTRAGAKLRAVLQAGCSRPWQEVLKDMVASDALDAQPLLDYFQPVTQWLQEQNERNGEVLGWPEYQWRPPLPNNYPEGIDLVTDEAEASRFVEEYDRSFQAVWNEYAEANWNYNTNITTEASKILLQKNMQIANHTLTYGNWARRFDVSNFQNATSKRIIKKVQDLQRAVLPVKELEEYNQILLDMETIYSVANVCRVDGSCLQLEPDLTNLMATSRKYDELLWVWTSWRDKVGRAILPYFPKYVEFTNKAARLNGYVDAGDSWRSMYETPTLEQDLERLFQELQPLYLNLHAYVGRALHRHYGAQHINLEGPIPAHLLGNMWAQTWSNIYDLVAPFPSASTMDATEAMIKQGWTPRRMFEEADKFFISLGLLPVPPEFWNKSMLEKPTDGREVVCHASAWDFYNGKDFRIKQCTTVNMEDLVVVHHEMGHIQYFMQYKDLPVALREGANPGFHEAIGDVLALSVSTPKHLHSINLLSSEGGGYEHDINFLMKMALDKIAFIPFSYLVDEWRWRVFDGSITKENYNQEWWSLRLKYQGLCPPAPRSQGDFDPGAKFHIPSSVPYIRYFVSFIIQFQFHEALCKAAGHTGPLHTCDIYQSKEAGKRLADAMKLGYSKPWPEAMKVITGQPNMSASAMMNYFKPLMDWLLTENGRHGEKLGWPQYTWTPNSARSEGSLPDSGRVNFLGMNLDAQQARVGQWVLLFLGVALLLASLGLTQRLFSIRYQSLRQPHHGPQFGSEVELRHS

Insulin receptor = Insulin receptor (Rattus norvegicus, UniProt P15127); assay type: cell membranes, Wistar, Liver, Membrane; further: in other assays of this panel Not Active means under 50% inhibition at 10 µM
Sequence of Insulin receptor (P15127 27-759 limits assumed): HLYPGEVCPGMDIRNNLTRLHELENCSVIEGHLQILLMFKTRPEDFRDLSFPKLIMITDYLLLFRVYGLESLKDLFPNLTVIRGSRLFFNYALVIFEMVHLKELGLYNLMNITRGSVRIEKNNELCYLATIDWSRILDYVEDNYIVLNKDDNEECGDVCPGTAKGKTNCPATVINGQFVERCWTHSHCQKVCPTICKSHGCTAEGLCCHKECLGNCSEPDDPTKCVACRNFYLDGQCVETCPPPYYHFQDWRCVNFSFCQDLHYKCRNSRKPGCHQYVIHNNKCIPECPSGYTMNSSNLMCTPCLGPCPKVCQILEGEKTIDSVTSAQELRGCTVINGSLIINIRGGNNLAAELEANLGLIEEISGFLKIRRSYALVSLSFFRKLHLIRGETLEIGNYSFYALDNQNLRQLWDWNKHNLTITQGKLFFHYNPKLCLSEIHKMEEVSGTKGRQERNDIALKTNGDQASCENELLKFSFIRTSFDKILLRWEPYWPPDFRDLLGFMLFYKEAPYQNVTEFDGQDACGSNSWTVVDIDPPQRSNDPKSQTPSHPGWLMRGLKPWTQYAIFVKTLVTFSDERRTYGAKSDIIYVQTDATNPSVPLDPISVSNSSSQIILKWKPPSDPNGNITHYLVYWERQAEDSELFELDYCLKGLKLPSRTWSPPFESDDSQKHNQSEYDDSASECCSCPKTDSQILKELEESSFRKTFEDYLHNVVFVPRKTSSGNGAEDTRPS
Sequence of Insulin receptor (P15127 764-1383 limits assumed): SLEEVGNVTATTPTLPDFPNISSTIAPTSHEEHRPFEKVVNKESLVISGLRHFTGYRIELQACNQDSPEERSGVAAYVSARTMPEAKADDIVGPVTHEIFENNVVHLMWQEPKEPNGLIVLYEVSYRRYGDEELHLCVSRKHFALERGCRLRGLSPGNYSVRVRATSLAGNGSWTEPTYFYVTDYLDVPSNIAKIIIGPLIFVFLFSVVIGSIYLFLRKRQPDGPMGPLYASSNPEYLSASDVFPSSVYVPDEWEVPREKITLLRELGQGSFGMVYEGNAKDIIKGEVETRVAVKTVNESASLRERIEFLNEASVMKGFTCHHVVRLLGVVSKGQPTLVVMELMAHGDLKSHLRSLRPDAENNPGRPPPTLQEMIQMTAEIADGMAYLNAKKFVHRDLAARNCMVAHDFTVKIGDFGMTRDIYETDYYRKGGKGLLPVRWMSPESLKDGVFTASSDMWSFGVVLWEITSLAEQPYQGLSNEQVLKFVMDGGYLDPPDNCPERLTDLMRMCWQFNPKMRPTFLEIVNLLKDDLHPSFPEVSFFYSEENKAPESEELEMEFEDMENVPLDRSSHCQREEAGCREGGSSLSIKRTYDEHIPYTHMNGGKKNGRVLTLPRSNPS

CCc1ccc(CCOc2ccc(CC3SC(=O)NC3=O)cc2)nc1 (stereo not given) [PIOGLITAZONE]
Not Active: IC50 (Cytochrome P450 1A2) | Ki (Cytochrome P450 1A2) | IC50 (Mu-type opioid receptor) | IC50 [1] | Ki [1] | IC50 [2] | Ki [2] | IC50 [3] | IC50 [4] | IC50 (Insulin receptor)

CCCNC(C)C(=O)Nc1ccccc1C (stereo not given) [PRILOCAINE]
Not Active: IC50 (Cytochrome P450 1A2) | Ki (Cytochrome P450 1A2) | IC50 (Mu-type opioid receptor) | IC50 [1] | Ki [1] | IC50 [2] | Ki [2] | IC50 [3] | IC50 [4] | IC50 (Insulin receptor)

CCN(CC)CCNC(=O)c1ccc(N)cc1 [PROCAINAMIDE]
Not Active: IC50 (Cytochrome P450 1A2) | Ki (Cytochrome P450 1A2) | IC50 (Mu-type opioid receptor) | IC50 [1] | Ki [1] | IC50 [2] | Ki [2] | IC50 [3] | IC50 [4] | IC50 (Insulin receptor)

CCN(CC)CCCC(C)Nc1c2ccc(Cl)cc2nc2ccc(OC)cc12 (stereo not given) [QUINACRINE]
Not Active: IC50 (Cytochrome P450 1A2) | Ki (Cytochrome P450 1A2) | IC50 (Mu-type opioid receptor) | IC50 [1] | Ki [1] | IC50 [2] | Ki [2] | IC50 [3] | IC50 [4] | IC50 (Insulin receptor)

C[C@]12C=CC(=O)C=C1CC[C@H]1[C@@H]3C[C@@H](O)[C@](O)(C(=O)CO)[C@@]3(C)C[C@H](O)[C@@]12F [TRIAMCINOLONE]
Not Active: IC50 (Cytochrome P450 1A2) | Ki (Cytochrome P450 1A2) | IC50 (Mu-type opioid receptor) | IC50 [1] | Ki [1] | IC50 [2] | Ki [2] | IC50 [3] | IC50 [4] | IC50 (Insulin receptor)

CC[C@]1(O)C[C@@H]2CN(CCc3c([nH]c4ccccc34)[C@@](C(=O)OC)(c3cc4c(cc3OC)N(C)[C@H]3[C@@](O)(C(N)=O)[C@H](O)[C@]5(CC)C=CCN6CC[C@]43[C@@H]65)C2)C1 [VINDESINE]
Not Active: IC50 (Cytochrome P450 1A2) | Ki (Cytochrome P450 1A2) | IC50 (Mu-type opioid receptor) | IC50 [1] | Ki [1] | IC50 [2] | Ki [2] | IC50 [3] | IC50 [4] | IC50 (Insulin receptor)

CCN(C(C)=O)c1cccc(-c2ccnc3c(C#N)cnn23)c1 [ZALEPLON]
Not Active: IC50 (Cytochrome P450 1A2) | Ki (Cytochrome P450 1A2) | IC50 (Mu-type opioid receptor) | IC50 [1] | Ki [1] | IC50 [2] | Ki [2] | IC50 [3] | IC50 [4] | IC50 (Insulin receptor)
